{
  "source": "ChEMBL document CHEMBL1158751",
  "about": "“Isoneocryptolepine, a synthetic indoloquinoline alkaloid, as an antiplasmodial lead compound” (J Nat Prod, 2005)",
  "key": {"[1]": {"system": "L6", "assay": "Cytotoxicity against rat L6 cells", "format": "cell-based"}, "[2]": {"system": "Leishmania donovani", "assay": "Antileishmanial activity against Leishmania donovani", "format": "functional, organism-based"}, "[3]": {"system": "Mus musculus", "assay": "Toxicity in Plasmodium berghei ANKA S infected NMRI mice (Mus musculus) assessed as death at 50 mg/kg, intraperitoneally twice a day after day 1 post-infection", "format": "organism-based", "set-up": "dose 50 mg/kg, route intraperitoneal", "settings": "in vivo, ip"}, "[4]": {"system": "Trypanosoma cruzi", "assay": "Antitrypanosomal activity against Trypanosoma cruzi", "format": "functional, organism-based"}, "[5]": {"system": "Trypanosoma brucei rhodesiense", "assay": "Antitrypanosomal activity against Trypanosoma brucei rhodesiense", "format": "functional, organism-based"}, "[6]": {"system": "Plasmodium berghei", "assay": "Antiplasmodial activity against Plasmodium berghei ANKA S infected NMRI mice (Mus musculus) as reduced parasitaemia at 50 mg/kg subcutaneous dose for 4 days", "format": "functional", "set-up": "scale not given: the % may be the effect or the level left"}, "[7]": {"system": "Plasmodium falciparum", "assay": "microbe, parasite or virus in culture", "settings": "K1, 3 h"}, "[8]": {"assay": "Selectivity index, IC50 for rat L6 cells to IC50 for chloroquine and pyrimethamine-resistant Plasmodium falciparum K1", "format": "functional"}, "[9]": {"assay": "Displacement of methyl green dye from DNA"}},
  "note": "Counter-ions that a name gives are not always drawn.",
  "data": [
    {"smiles": "Cn1c2ccccc2c2c[n+](C)c3ccccc3c21.[I-]", "values": [
      {"measurement": "IC50", "setting": "[1]", "value": 12.7, "unit": "µM"},
      {"measurement": "IC50", "setting": "[2]", "value": 1.15, "unit": "µM"},
      {"measurement": "Activity", "setting": "[3]", "value": "Toxic"},
      {"measurement": "IC50", "setting": "[4]", "value": 236, "unit": "µM"},
      {"measurement": "IC50", "setting": "[5]", "value": 0.37, "unit": "µM"},
      {"measurement": "Activity", "setting": "[6]", "value": 38.9, "unit": "%"},
      {"measurement": "IC50", "setting": "[7]", "value": 0.017, "unit": "µM"},
      {"measurement": "Ratio IC50", "setting": "[8]", "value": ">700"}
    ]},
    {"smiles": "Cn1c2c3ccccc3nc-2c(-n2c3ccccc3c3nc4ccccc4cc32)c2ccccc21", "values": [
      {"measurement": "IC50", "setting": "[1]", "value": 165, "unit": "µM"},
      {"measurement": "IC50", "setting": "[2]", "value": "> 65", "unit": "µM"},
      {"measurement": "IC50", "setting": "[4]", "value": 84.4, "unit": "µM"},
      {"measurement": "IC50", "setting": "[5]", "value": 96.4, "unit": "µM"}
    ]},
    {"smiles": "C[C@@H]1CC[C@H]2[C@@H](C)C(=O)O[C@@H]3O[C@@]4(C)CC[C@@H]1[C@]32OO4", "note": "[ARTEMISININ]", "values": [
      {"measurement": "IC50", "setting": "[7]", "value": 0.042, "unit": "µg/mL"}
    ]},
    {"smiles": "O=C(Cn1ccnc1[N+](=O)[O-])NCc1ccccc1", "note": "[BENZNIDAZOLE]", "values": [
      {"measurement": "IC50", "setting": "[4]", "value": 1.5, "unit": "µg/mL"}
    ]},
    {"smiles": "Cn1c2c3ccccc3nc-2c(-c2c3nc4ccccc4c-3n(C)c3ccccc23)c2ccccc21", "note": "[BISCRYPTOLEPINE]", "values": [
      {"measurement": "IC50", "setting": "[1]", "value": 13.6, "unit": "µM"},
      {"measurement": "IC50", "setting": "[2]", "value": 8.93, "unit": "µM"},
      {"measurement": "IC50", "setting": "[4]", "value": 3.48, "unit": "µM"},
      {"measurement": "IC50", "setting": "[5]", "value": 2.57, "unit": "µM"},
      {"measurement": "IC50", "setting": "[7]", "value": 0.27, "unit": "µM"}
    ]},
    {"smiles": "CCN(CC)CCCC(C)Nc1ccnc2cc(Cl)ccc12", "note": "(centres undefined) [CHLOROQUINE]", "values": [
      {"measurement": "Activity", "setting": "[6]", "value": 99.9, "unit": "%"}
    ]},
    {"smiles": "C[n+]1c2ccccc2cc2[n-]c3ccccc3c21", "note": "[CRYPTOLEPINE HYDROCHLORIDE]", "values": [
      {"measurement": "IC50", "setting": "[1]", "value": 1.12, "unit": "µM"},
      {"measurement": "IC50", "setting": "[9]", "value": 65, "unit": "µM"}
    ]},
    {"smiles": "Cn1cc2c3ccccc3nc-2c2ccccc21", "note": "[ISOCRYPTOLEPINE HYDROCHLORIDE]", "values": [
      {"measurement": "IC50", "setting": "[1]", "value": 1.19, "unit": "µM"},
      {"measurement": "IC50", "setting": "[9]", "value": 119, "unit": "µM"}
    ]},
    {"smiles": "C[n+]1cc2[nH]c3ccccc3c2c2ccccc21.[Cl-]", "note": "[ISONEOCRYPTOLEPINE HYDROCHLORIDE]", "values": [
      {"measurement": "IC50", "setting": "[1]", "value": 4.32, "unit": "µM"},
      {"measurement": "Activity", "setting": "[6]", "value": 10.3, "unit": "%"},
      {"measurement": "Ratio IC50", "setting": "[8]", "value": 20},
      {"measurement": "IC50", "setting": "[9]", "value": 124, "unit": "µM"}
    ]},
    {"smiles": "Nc1nc(N)nc(Nc2ccc([As]3SCC(CO)S3)cc2)n1", "note": "(centres undefined) [MELARSOPROL]", "values": [
      {"measurement": "IC50", "setting": "[5]", "value": 0.0038, "unit": "µg/mL"}
    ]},
    {"smiles": "CCCCCCCCCCCCCCCCOP(=O)([O-])OCC[N+](C)(C)C", "note": "[MILTEFOSINE]", "values": [
      {"measurement": "IC50", "setting": "[2]", "value": 0.56, "unit": "µg/mL"}
    ]},
    {"smiles": "Cn1c2nc3ccccc3c-2cc2ccccc21", "note": "[NEOCRYPTOLEPINE HYDROCHLORIDE]", "values": [
      {"measurement": "IC50", "setting": "[1]", "value": 3.24, "unit": "µM"},
      {"measurement": "IC50", "setting": "[9]", "value": 93, "unit": "µM"}
    ]},
    {"smiles": "COc1cc([C@@H]2c3cc4c(cc3[C@H](O)[C@H]3COC(=O)[C@H]23)OCO4)cc(OC)c1OC", "note": "[PODOFILOX]", "values": [
      {"measurement": "IC50", "setting": "[1]", "value": 0.018, "unit": "µg/mL"}
    ]},
    {"smiles": "C=C[C@H]1CN2CC[C@H]1C[C@H]2[C@H](O)c1ccnc2ccc(OC)cc12", "note": "[QUININE]", "values": [
      {"measurement": "IC50", "setting": "[9]", "value": "> 360", "unit": "µM"}
    ]}
  ]
}
